# B1: PTH: parathyroid hormone, intermittent administration (protein, UniProt P01270 32-115, looked up)
# Parathyroid hormone: SVSEIQLMHNLGKHLNSMERVEWLRKKLQDVHNFVALGAPLAPRDAGSQRPRKKEDNVLVESHEKSLGEADKADVNVLTKAKSQ
# modifications: Parathyroid hormone
# notes: parathyroid hormone, intermittent administration
# Columns and labels:
# MLO-Y4 osteocytic cells = conditions: for inhibition of glucocorticoid-induced apoptosis: then dexamethasone 10^−6 M for 6 h
# Procedure: The murine long bone-derived osteocytic cell line MLO-Y4 was provided by Dr. Lynda Bonewald (University of Texas Health Center at San Antonio, Tex.). Cells were cultured in phenol red-free αMEM supplemented with 5% FBS, 5% bovine calf serum, 100 U/ml penicillin and 100 μg/ml streptomycin. Cells were plated at 1-2×10^4 cells/cm^2 on collagen type I coated plates, as described previously (Kato, et al., 1997. J. Bone Miner. Res. 12:2014-2023). Murine calvaria cells were obtained from neonatal (3- to 6-day old) C57BL/6J mice by controlled digestion with collagenase, as previously described (Bellido, et al., 1997. Endocrinology 138:3666-3676). After isolation, cells were cultured in 10% FBS at 1-2×10^4 cells/cm^2 until 90-95% confluence. Subsequently, cells were harvested and frozen for later use. UMR-106-06 cells were cultured in phenol red-free MEM supplemented with 10% FBS, 1% non-essential aminoacids, 100 U/ml penicillin, and 100 μg/ml streptomycin (Sakagami, et al., Manolagas. 1993. J. Bone Miner. Res. 8:811-816).
# Nonadherent cells were combined with adherent cells released from the culture dish using trypsin-EDTA, resuspended in medium containing serum, and collected by centrifugation. […] At least 100 cells per condition were counted.
# (§1) MLO-Y4 osteocytic cells and calvaria osteoblastic cells were treated for 1 hour in the absence or presence of different BPs or sCT. Subsequently, dexamethasone, etoposide or TNF-α were added to obtain final concentrations of 10^−6 M, […], or 1 nM, respectively, and cells were incubated for additional 6 h. The effect of PD98059 (50 μM) or UO126 (1 μM) was evaluated by pretreating the cells with the inhibitors for 30 min before adding the BPs or sCT. In the experiment using the membrane permeable caspase inhibitor DEVD, cells were cultured for 1 hour with 50 nM DEVD-CHO and subsequently the pro-apoptotic agents were added to reach the final concentrations indicated above. […] At least 500 cells from fields selected by systematic random sampling were examined for each experimental condition. […] The TUNEL reaction was performed according to the manufacturer's instructions, using 0.15% CuSO4 for color enhancement. Negative controls were made by omitting the transferase from the reaction. Cells presenting brown nuclear staining were considered positive. More than 500 cells per condition were analyzed. Apoptosis of parental MLO-Y4 or calvaria cells was quantified by trypan blue staining (Jilka, et al., 1998. J. Bone Miner. Res. 13:793-802). Nonadherent cells were combined with adherent cells released from the culture dish using trypsin-EDTA, resuspended in medium containing serum, and collected by centrifugation. […] At least 100 cells per condition were counted.
# MLO-Y4 cells were incubated for 1 h in vehicle or 50 nM DEVD-CHO. Subsequently, etoposide, TNF-α, or dexamethasone (Dex) were added at final concentrations of 50 μg/ml, 1 nM, or 10^−6 M, respectively, and cells were incubated for additional 6 h. Dead cells were enumerated by trypan blue uptake.
# The percentage of dead cells was determined by trypan blue uptake, as in Methods and Materials. Bars represent the mean ±S.D. of three independent measurements.
# Subsequently, etoposide, TNF-α, or dexarnethasone were added to reach final concentrations of 50 μg/ml, 1 nM, or 10^−6 M, respectively, and cells were cultured for 6 h, as in FIG. 1. The percentage of dead cells was determined by trypan blue uptake. Bars represent the mean ±S.D. of three independent measurements. Data were analyzed by two-way ANOVA.
# ERK1/2 = ERK1/2 phosphorylation in MLO-Y4 cells by Western blot; assay type: cell-based, murine; conditions: 10^−7 M
# Procedure: Monolayers were washed with cold 20 mM Tris-HCl (pH 7.5), 150 mM NaCl, 1 mM sodium orthovanadate and lysed in the lysis buffer mentioned above. Insoluble material was pelleted in a microcentrifuge at 14,000×rpm for 10 mn. […] Proteins (10 μg) were separated on 7.5% SDS-polyacrylamide gels and electrotransferred to a polyvinylidene difluoride membrane. Immunoblotting was performed using a mouse monoclonal antibody recognizing tyrosine phosphorylated ERK1/2, or a rabbit polyclonal antibody recognizing total ERK1/2, followed by incubation with either an antimouse or an antirabbit antibody conjugated with horseradish peroxidase. Blots were developed using Chemiluminescence according to the manufacturer's recommendations. Quantitation of the intensity of the bands in the autoradiograms was performed using a scanner (Microtek Lab., Redondo Beach, Calif.).
# [1] = cited from earlier work
# [2] = rats, intravenously; cited from earlier work
# osteocytic MLO-Y4 cells = test: TUNEL reaction in MLO-Y4 cells; assay type: cell-based, murine; conditions: 10^−7 M alendronate 1 h and/or 10^−6 M dexamethasone 6 h
# Procedure: as §1
# [3] = test system: osteocyte and osteoblast apoptosis in murine vertebral cancellous bone; test: Murine model of glucocorticoid excess: TUNEL in vertebral bone sections and spinal BMD by DEXA; assay type: in vivo, Male Swiss Webster mice; conditions: alendronate beginning 3 days before prednisolone pellets
# Description: To adjust for the difference in the metabolic rate in mice compared to that in humans, the daily glucocorticoid dose was divided by the metabolic weight, i.e. the weight in kg to the 3/4 power (Borchard, et al., 1992. Drug dosage in laboratory animals: a handbook. CRC Press, Inc., Boca Raton, Fla. 514 pp.; Kleiber, M. 1961. The fire of life: an introduction to animal energetics. New York). […] One control group received saline injections with placebo pellet implantation while another group received saline injections plus prednisolone pellets. Dual-energy X-ray absorptiometry (DEXA) was used to determine spinal bone mineral density (spinal BMD) at the end of the 56-day experiment, as previously described (Weinstein et al., 1998. J. Clin. Invest. 102:274-282).
# Sections of vertebral bone (L1 to L5) were mounted on silane-coated glass slides (Scientific Device Lab, Inc., Des Plains, Ill.), deplasticized and incubated in 10 mM citrate buffer, pH 7.6, in a microwave oven at 98° C. for 5 minutes (Jilka, et al., 1998. J. Bone Miner. Res. 13:793-802). Slides were then incubated with 0.5% pepsin for 30 minutes at 37° C. Apoptotic cells were detected by the TUNEL reaction as described above using 0.15% CuSO4 for color enhancement of the diaminobenzidine in sections counterstained with 1% methyl green. The TUNEL reaction is noted within cell nuclei and the cells whose nuclei were clearly brown from the streptavidin-horse radish peroxidase conjugate instead of blue-green from the methyl green were interpreted as positive. Plastic-embledded sections of weaned rat mammary tissue were used as a positive control. Negative controls were made by omitting the transferase from the TUNEL reaction. Morphological changes characteristic of apoptosis were carefully examined to minimize ambiguity regarding the interpretation of results. […] Osteocytes were identified inside lacunae in mineralized bone (FIG. 11A). Osteoblasts were identified as cuboidal cells lining the osteoid-covered trabecular perimeter (FIG. 11B).
# [4] = test system: osteoblastic cells derived from murine calvaria; test: Apoptosis of osteoblastic cells derived from murine calvaria by trypan blue uptake; assay type: cell-based; conditions: 10^−7 M, 1 h pretreatment; 6 h
# osteoblast apoptosis = conditions: intermittent PTH administration in mice; decreased from 1.7-2.2%; cited from earlier work
# Procedure for caspase-3: Caspase-3 activity was measured by determining the degradation of the fluorometric substrate DEVD, that contains acid sequence of the caspase-3 cleavage site in poly(ADP-ribose)polymerase (PARP) (Schlegel, et al., 1996. J. Biol. Chem. 271:1841-1844) conjugated with 7-amino-4-trifluoromethyl coumarin (DEVD-AFC). Cells were lysed in 20 mM Tris-HCl (H 7.5), 150 mM NaCl, 1 mM EDTA, 10 mM NaF, 1 mM sodium orthovanadate, 5 μg/ml leupeptin, 0.14 U/ml aprotinin, 1 mM phenylmethylsulfonylfluoride, and 1% Triton X-100. Protein concentration was measured using a Bio-Rad detergent compatible kit (Hercules, Calif.). Lysates (100 μg protein) were incubated with 50 μM DEVD-AFC in 50 mM HEPES, pH 7.4, 100 mM NaCl, 0.1% CHAPS, 10 mM DTT, 1 mM EDTA, 10% glycerol, in the absence or presence of the irreversible inhibitor DEVD-CHO for 60 min. The released fluorescent AFC was measured in a microplate fluorescence reader FL500 (Bio Tek Instruments, Winooski, Vt.) with excitation/emission wavelengths of 340/542 nm.
# Caspase-3 activity was determined by measuring the degradation of the fluorometric substrate DEVD-AFC in the absence or presence of the irreversible inhibitor DEVD-CHO, as detailed in Example 5.
molecule,measurement,setting,value
CC(O)(P(=O)(O)O)P(=O)(O)O [etidronate],inhibition of glucocorticoid-induced apoptosis,MLO-Y4 osteocytic cells; 1 h pretreatment,Comparable responses
same,phosphorylation of ERK 1 and 2,ERK1/2,increase in the phosphorylated fraction of ERKs
same,reduction of resorption depth in human iliac trabecular bone,[1]; after one year of treatment,~30%
"CC(=O)N[C@@H](CS)C(=O)O [N-acetylcysteine, acetarnido-mercaptopropionic acid]",LD50,[2],1140 mg/kg
"NCCCC(O)(P(=O)(O)O)P(=O)(O)O [alendronate, 4-amino-1-hydroxybutylidene-1,1-bisphosphonate]",% of TUNEL positive cells,osteocytic MLO-Y4 cells,6.16%
same,Number of TUNEL positive cells,osteocytic MLO-Y4 cells,35
same,number of TUNEL negative cells,osteocytic MLO-Y4 cells,533
same,number of living MLO-Y4 cells,"MLO-Y4 osteocytic cells; 10^−6 M dexamethasone 24 h, 10^−7 M alendronate 1 h pretreatment",abolished this effect
same,prevention of apoptosis induced by etoposide or TNF-α,"MLO-Y4 osteocytic cells; 10^−7 M, 1 h pretreatment, 6 h",prevented apoptosis
same,cell viability in the absence of pro-apoptotic stimuli,MLO-Y4 osteocytic cells; 10^−10 to 10^−3 M,did not affect cell viability
same,inhibition of glucocorticoid-induced apoptosis,MLO-Y4 osteocytic cells; 1 h pretreatment,Comparable responses
same,dexamethasone-induced increase in caspase-3 activity,"caspase-3; 10^−7 M alendronate 1 h, then 10^−6 M dexamethasone 16 h",inhibited the dexamethasone-induced increase in caspase-3 activity
same,"caspase-3 activity, TUNEL positive cells and number of living cells","caspase-3; alendronate alone, absence of dexamethasone",did not affect any of these parameters
same,earliest time at which increased ERK phosphorylation was observed,ERK1/2,0.5 min
same,phosphorylation of ERK 1 and 2,ERK1/2,rapid and transient increase
same,bone loss induced by the glucocorticoid,[3],prevented the bone loss
same,increase in bone cell apoptosis induced by the glucocorticoid,[3],abolished the increase in bone cell apoptosis
same,"inhibition of apoptosis of osteoblastic cells induced by dexamethasone, TNF-α and etoposide",[4],inhibited apoptosis
[F-].[Na+] [sodium fluoride],increase in vertebral bone mass,[1]; for at least four years,10 % a year
B1,prevalence of osteoblast apoptosis,osteoblast apoptosis,0.1-0.4%
